Patent US20240067651A1 (Biohaven Therapeutics Ltd., priority 2019, published 2024)

Key:
[1] = tested on: Caco-2 monolayer; assay: Caco-2 Permeability Assay; assay type: in vitro ADME, human
How it was run: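 Caco-2 monolayers cultured 21 days (TEER >600 […]); test article at 10 μM in HBSS/HEPES pH 7.4 transport medium, dosed apical or basolateral, ±Pgp inhibitor. Incubated 90 min at 37 °C; both compartments quantified by LC-MS/MS. Papp (A→B, B→A), efflux ratio and % recovery calculated.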

[2] = Stability in Simulated Gastric Fluid (SGF); assay type: in vitro ADME; set-up: key: % parent compound remaining relative to 0-minute sample
How it was run: (§1)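 Stability was tested at 37° C in pepsin-supplemented gastric fluid, pH 1.2, and pancreatin-supplemented intestinal fluid, pH 6.8, using 2 μg/mL final compound over 0–60 minutes. Remaining parent was quantified by LC-MS/MS and expressed as a percentage of time zero.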

[3] = Stability in Simulated Intestinal Fluid (SIF); assay type: in vitro ADME; set-up: key: % parent compound remaining relative to 0-minute sample
How it was run: as §1

[4] = Plasma Stability; assay type: in vitro ADME, human
How it was run: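 Compounds incubated at 1 μM in fresh human plasma for 1 hour at 37° C, then protein-precipitated with acetonitrile/formic acid containing internal standard. Remaining parent measured by LC-MS/MS in triplicate, expressed as percent of control remaining.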

[5] = % remaining after 1 h in simulated gastric fluid
[6] = % remaining after 1 h in simulated intestinal fluid
[7] = % remaining after 1 h in human plasma
[8] = donor 10 μM, 90 minutes, 37° C., direction not given
[9] = % remaining at 1 h, SGF with pepsin pH 1.2, 2 μg/mL, 37° C.
[10] = % remaining at 1 h, SIF with pancreatin pH 6.8, 2 μg/mL, 37° C.
[11] = % remaining at 1 h, human plasma, 1 μM, 37° C.
[12] = % remaining at 1 h in simulated gastric fluid
[13] = % remaining at 1 h in simulated intestinal fluid
[14] = % remaining at 1 h in human plasma

Compound: 5-{[2-({[(5-{[(2S)-2-{[(tert-butoxy)carbonyl]amino}-4-methylpentanoyl]oxy}penta-noyl)oxy]methyl}sulfanyl)-4-oxo-1-[2-(propan-2-yloxy)ethyl]-1H,4H,5H-pyrrolo[3,2-d]pyrimidin-5-yl]methoxy}-5-oxopentyl (2S)-2-{[(tert-butoxy)carbonyl]amino}-4-methylpentanoate [Example 343]
- Caco-2 Papp ([1]; Caco-2): 4.67 ×10⁻⁶ cm/s
- SGF ([2]; % remaining @ 1 h): 82% remaining
- SIF ([3]; % remaining @ 1 h): 29% remaining
- human Plasma stability ([4]; % remaining @ 1 h): 1% remaining

Compound: 5-{[({2-[2-(2-{[(tert-butoxy)carbonyl]amino}ethoxy)eth-oxy]ethoxy}carbonyl)oxy]methyl}-1-[2-(propan-2-yloxy)ethyl]-2-sulfanylidene-1H,2H,3H,4H,5H-pyrrolo[3,2-d]pyrimidin-4-one [Example 370]
- Caco-2 Papp ([1]; Caco-2 monolayer): 1.54 ×10⁻⁶ cm/s
- SGF ([2]; simulated gastric fluid, remaining at 1 h): 99% remaining
- SIF ([3]; simulated intestinal fluid, remaining at 1 h): 35% remaining
- human Plasma stability ([4]; human plasma, remaining at 1 h): 1% remaining

Compound: 15-[2-(propan-2-yloxy)ethyl]-14-sulfanylidene-3,5,9,11-tetraoxa-1,13,15-triazatricyclo[11.5.2.0^{16,19}]icosa 16(19),17-diene-4,10,20-trione [Example 409]
- Caco-2 Papp ([1]; Caco-2 monolayer): <0.107 ×10⁻⁶ cm/s
- SGF [2, 5]: 94% remaining
- SIF [3, 6]: 28% remaining
- human Plasma stability [4, 7]: 4% remaining

Compound: 17-[2-(propan-2-yloxy)ethyl]-16-sulfanylidene-3,5,8,11,13-pentaoxa-1,15,17-triazatricyclo[13.5.2.0^{18,21}]docosa-18(21),19-diene-4,12,22-trione [Example 404]
- Caco-2 Papp ([1]; Caco-2 monolayer): 5.08 ×10⁻⁶ cm/s
- SGF [2, 5]: 92% remaining
- SIF [3, 6]: 86% remaining
- human Plasma stability [4, 7]: 77% remaining

Compound: CC(C)OCCn1c(=S)[nH]c(=O)c2c1ccn2COC(=O)[C@H]1CCCN1C(=O)OC(C)(C)C [Example 3, 1-tert-butyl 2-{4-oxo-1-[2-(propan-2-yloxy)ethyl]-2-sulfanylidene-1H,2H,3H,4H,5H-pyrrolo[3,2-d]pyrimidin-5-yl} methyl (2R)-pyrrolidine-1,2-dicarboxylate]
- Caco-2 Papp [1, 8]: 41.9 ×10⁻⁶ cm/s
- SGF [2, 9]: 84%
- SIF [3, 10]: 89%
- human Plasma stability [4, 11]: 99%

Compound: CC(C)OCCn1c(=S)[nH]c(=O)c2c1ccn2COC(=O)[C@H]1CCCN1C(=O)OCC1c2ccccc2-c2ccccc21 [Example 5, 1-(9H-fluoren-9-ylmethyl) 2-{4-oxo-1-[2-(propan-2-yloxy)ethyl]-2-sulfanylidene-1H, 2H,3H,4H,5H-pyrrolo[3,2-d]pyrimidin-5-yl}methyl(2R)-pyrrolidine-1,2-dicarboxylate]
- Caco-2 Papp [1, 8]: 14 ×10⁻⁶ cm/s
- SGF [2, 9]: 90%
- SIF [3, 10]: 76%
- human Plasma stability [4, 11]: 97%

Compound: CC(C)OCCn1c(=S)[nH]c(=O)c2c1ccn2COC(=O)CCCCNC(=O)CN.O=C(O)C(F)(F)F [Example 15, trifluoroacetic acid {4-oxo-1-[2-(propan-2-yloxy)ethyl]-2-sulfanylidene-1H,2H,3H,4H,5H-pyrrolo[3,2-d]pyrimidin-5-yl} methyl 5-(2-aminoacetamido)pentanoate]
- Caco-2 Papp ([1]; Caco-2 monolayer): >0.567 ×10⁻⁶ cm/s
- SGF [2, 12]: 100%
- SIF [3, 13]: 4% remaining
- human Plasma stability [4, 14]: 9% remaining

Compound: CC(C)OCCn1c(=S)[nH]c(=O)c2c1ccn2COC(=O)CCCCNC(=O)[C@@H]1CCC(=O)N1C(=O)OCc1ccccc1.O=C(O)C(F)(F)F [Example 16, trifluoroacetic acid benzyl (5S)-2-oxo-5-{[5-oxo-5-({4-oxo-1-[2-(propan-2-yloxy)ethyl]-2-sulfanylidene-1H,2H,3H,4H,5H-pyrrolo[3,2-d]pyrimidin-5-yl}methoxy)pentyl]carbamoyl} pyrrolidine-1-carboxylate]
- Caco-2 Papp ([1]; Caco-2 monolayer): 0.903 ×10⁻⁶ cm/s
- SGF [2, 12]: 96% remaining
- SIF [3, 13]: 93% remaining
- human Plasma stability [4, 14]: 21% remaining

Compound: CC(C)OCCn1c(=S)[nH]c(=O)c2c1ccn2COC(=O)CCNC(=O)[C@@H]1CCC(=O)N1C(=O)OCc1ccccc1.O=C(O)C(F)(F)F [Example 17, trifluoroacetic acid benzyl (5S)-2-oxo-5-{[3-oxo-3-({4-oxo-1-[2-(propan-2-yloxy)ethyl]-2-sulfanylidene-1H,2H,3H,4H,5H-pyrrolo[3,2-d]pyrimidin-5-yl}methoxy)propyl]carbamoyl} pyrrolidine-1-carboxylate]
- Caco-2 Papp ([1]; Caco-2 monolayer): 0.368 ×10⁻⁶ cm/s
- SGF [2, 12]: 99% remaining
- SIF [3, 13]: 3% remaining
- human Plasma stability [4, 14]: 38% remaining

Compound: CC(C)OCCn1c(=S)[nH]c(=O)c2c1ccn2COC(=O)CCCCNC(=O)[C@@H](N)CCc1ccccc1.O=C(O)C(F)(F)F [Example 24, trifluoroacetic acid {4-oxo-1-[2-(propan-2-yloxy)ethyl]-2-sulfanylidene-1H,2H,3H,4H,5H-pyrrolo [3,2-d]pyrimidin-5-yl} methyl 5-[(2S)-2-amino-4-phenylbutanamido]pentanoate]
- Caco-2 Papp ([1]; Caco-2 monolayer): 0.302 ×10⁻⁶ cm/s
- SGF [2, 12]: 99% remaining
- SIF [3, 13]: 76% remaining
- human Plasma stability [4, 14]: 1% remaining

Compound: CSCC[C@H](N)C(=O)NCCC(=O)OCn1ccc2c1c(=O)[nH]c(=S)n2CCOC(C)C.O=C(O)C(F)(F)F [Example 32, trifluoroacetic acid {4-oxo-1-[2-(propan-2-yloxy)ethyl]-2-sulfanylidene-1H,2H,3H,4H,5H-pyrrolo [3,2-d]pyrimidin-5-yl} methyl 3-[(2S)-2-amino-4-(methylsulfanyl)butanamido]propanoate]
- Caco-2 Papp ([1]; Caco-2 monolayer): 0.147 ×10⁻⁶ cm/s
- SGF [2, 12]: 97% remaining
- SIF [3, 13]: 33% remaining
- human Plasma stability [4, 14]: 17% remaining

Compound: CC(C)OCCn1c(=S)[nH]c(=O)c2c1ccn2COC(=O)CCCCNC(=O)[C@@H]1CCCN1C(N)=O.O=C(O)C(F)(F)F [Example 69, trifluoroacetic acid {4-oxo-1-[2-(propan-2-yloxy)ethyl]-2-sulfanylidene-1H,2H,3H,4H,5H-pyrrolo[3,2-d]pyrimidin-5-yl}methyl 5-{[(2S)-1-carbamoylpyrrolidin-2-yl]formamido}pentanoate Caco-2 Papp]
- Caco-2 Papp ([1]; Caco-2 monolayer): 0.217 ×10⁻⁶ cm/s
- SGF [2, 12]: 84% remaining
- SIF [3, 13]: 94% remaining
- human Plasma stability [4, 14]: 7% remaining

Compound: CC(C)OCCn1c(=S)[nH]c(=O)c2c1ccn2C(C)OC(=O)OC(C)C (stereo not drawn) [Example 92, 1-{4-oxo-1-[2-(propan-2-yloxy)ethyl]-2-sulfanylidene-1H,2H,3H,4H,5H-pyrrolo[3,2-d]pyrimidin-5-yl}ethyl propan-2-yl carbonate]
- Caco-2 Papp [1, 8]: unstable
- SGF [2, 9]: 1% remaining
- SIF [3, 10]: 74% remaining
- human Plasma stability [4, 11]: 0% remaining

Compound: COCCOCCOC(=O)OCn1c(=O)c2c(ccn2COC(=O)OCCOCCOC)n(CCOC(C)C)c1=S [Example 106, {3-[{{[2-(2-methoxyethoxy)ethoxy]carbonyl}oxy)methyl]-4-oxo-1-[2-(propan-2-yloxy)ethyl]-2-sulfanylidene-1H,2H,3H,4H,5H-pyrrolo[3,2-d]pyrimidin-5-yl} methyl 2-(2-methoxyethoxy)ethyl carbonate]
- Caco-2 Papp ([1]; unit inferred): 13.9 ×10⁻⁶ cm/s
- SGF [2, 9]: 100%
- SIF [3, 10]: 1%
- human Plasma stability [4, 11]: 2%

Compound: CC(C)OCCn1c(SCOC(=O)OCCOCCN)nc(=O)c2c1ccn2COC(=O)OCCOCCN.O=C(O)C(F)(F)F.O=C(O)C(F)(F)F [Example 124]
- Caco-2 Papp ([1]; Caco-2 monolayer): 1.18 ×10⁻⁶ cm/s
- SGF [2, 12]: 67% remaining
- SIF [3, 13]: 57% remaining
- human Plasma stability [4, 14]: 28% remaining
